Test results published in patent US9499466B2, “Diene-based carboxylate anion and salt thereof, and polymerizable or curable composition thereof” (NIPPON SHOKUBAI CO., LTD., priority 2010, dated 2016).

What was measured:
[1] = Solubility test (dissolution method); conditions: for Solubility (dissolution method) Water: mixed at 1%, 3%, 5%, 10%, 20% or more
Source text: The solubility evaluation by the dissolution method requires complicated operations and a large amount of test sample. Therefore, this test is not suitable for screening. However, the solubility of each compound can be more accurately evaluated.

[2] = Adhesion of cured material to PET film (cross-cut method, JIS K 5600-5-6); conditions: UV-cured film on surface-untreated PET film, cross-cut 10×10
Protocol: Each compound shown in Table 11 was formed into a UV-cured film on a PET film in the same manner as in the pencil hardness test, except that the PET film used as a substrate was a surface-untreated polyethylene terephthalate (PET) film (Lumirror L-50T60, produced by Toray Industries, Inc.).
The adhesion of the UV-cured film to the PET film was evaluated based on JIS K 5600-5-6 (cross-cut method). The number of divided segments was 10×10 segments=100 segments. The adhesion was evaluated by the number of the segments which remain without peeling or damage in 100 segments.

[3] = Solubility test (film-forming method); conditions: solvent dropped on film on glass plate; Water
Protocol: Each compound was applied on a glass plate and the glass plate was leaned against the wall. Each solvent shown in Table 5 was dropped (5 to 6 drops) on the glass plate with a pasteur pipette. The glass plate was visually observed after the dropped solvent was dried, the surface was optionally rubbed with a spatula, and the solubility (film-forming method) was evaluated according to the criteria shown in Table 4.

SMILES | Solubility (dissolution method) Acetone [1] | Solubility (dissolution method) Acetonitrile [1] | Solubility (dissolution method) Ethyl acetate [1] | Solubility (dissolution method) Methanol [1] | Solubility (dissolution method) THF [1] | Solubility (dissolution method) Toluene [1] | Solubility (dissolution method) Water [1] | Adhesion (segments remaining without peeling or damage in 100 segments) [2] | Solubility (film-forming method) Water [3]
C=CC(=O)OCC(C)(C)COC(=O)C=C [NPGDA, reference compound] | ◯◯ (Become uniform and transparent at a compound concentration of 20% or more) | ◯◯ (Become uniform and transparent at a compound concentration of 20% or more) | ◯◯ (Become uniform and transparent at a compound concentration of 20% or more) | ◯◯ (Become uniform and transparent at a compound concentration of 20% or more) | ◯◯ (Become uniform and transparent at a compound concentration of 20% or more) | ◯◯ (Become uniform and transparent at a compound concentration of 20% or more) | X (Not become uniform and transparent even at a compound concentration of 1%) | 49/100 | –
C=CC(=O)OCC(CC)(COC(=O)C=C)COC(=O)C=C [TMPTA, reference compound] | ◯◯ (Become uniform and transparent at a compound concentration of 20% or more) | ◯◯ (Become uniform and transparent at a compound concentration of 20% or more) | ◯◯ (Become uniform and transparent at a compound concentration of 20% or more) | ◯◯ (Become uniform and transparent at a compound concentration of 20% or more) | ◯◯ (Become uniform and transparent at a compound concentration of 20% or more) | ◯◯ (Become uniform and transparent at a compound concentration of 20% or more) | X (Not become uniform and transparent even at a compound concentration of 1%) | 71/100 | –
C=CCOCC(=C)C(=O)[O-].C=CCOCC(=C)C(=O)[O-].[Zn+2] [Zn(AMA)2] | – | – | – | – | – | – | – | 100/100 | X-Δ
C=CCOCC(=C)C(=O)[O-].C=CCOCC(=C)C(=O)[O-].[O]=[Zr+2] [ZrO(AMA)2] | ◯◯ (Become uniform and transparent at a compound concentration of 20% or more) | ◯◯ (Become uniform and transparent at a compound concentration of 20% or more) | ◯◯ (Become uniform and transparent at a compound concentration of 20% or more) | ◯◯ (Become uniform and transparent at a compound concentration of 20% or more) | ◯◯ (Become uniform and transparent at a compound concentration of 20% or more) | ◯◯ (Become uniform and transparent at a compound concentration of 20% or more) | X (Not become uniform and transparent even at a compound concentration of 1%) | 100/100 | –
